Reference: patent publication US20200079766A1, “MONOCYCLIC OGA INHIBITOR COMPOUNDS” (Janssen Pharmaceutica NV, priority 2016, published 2020)

How the values were obtained:
[1] = target: T1, recombinant human Meningioma Expressed Antigen 5 (MGEA5), also referred to as O-GlcNAcase (OGA) (Homo sapiens, UniProt O60502); test: OGA biochemical assay: inhibition of FM-GlcNAc hydrolysis, fluorescence; protocol A (10 nM OGA, 1 h) or protocol B (2 nM OGA, 6 h); conditions: Enzymatic protocol B (2 nM OGA, 6 h)
T1 construct: Full length OGA enzyme was purchased at OriGene (cat # TP322411); purchased OriGene TP322411
T1 sequence (O60502 1-916): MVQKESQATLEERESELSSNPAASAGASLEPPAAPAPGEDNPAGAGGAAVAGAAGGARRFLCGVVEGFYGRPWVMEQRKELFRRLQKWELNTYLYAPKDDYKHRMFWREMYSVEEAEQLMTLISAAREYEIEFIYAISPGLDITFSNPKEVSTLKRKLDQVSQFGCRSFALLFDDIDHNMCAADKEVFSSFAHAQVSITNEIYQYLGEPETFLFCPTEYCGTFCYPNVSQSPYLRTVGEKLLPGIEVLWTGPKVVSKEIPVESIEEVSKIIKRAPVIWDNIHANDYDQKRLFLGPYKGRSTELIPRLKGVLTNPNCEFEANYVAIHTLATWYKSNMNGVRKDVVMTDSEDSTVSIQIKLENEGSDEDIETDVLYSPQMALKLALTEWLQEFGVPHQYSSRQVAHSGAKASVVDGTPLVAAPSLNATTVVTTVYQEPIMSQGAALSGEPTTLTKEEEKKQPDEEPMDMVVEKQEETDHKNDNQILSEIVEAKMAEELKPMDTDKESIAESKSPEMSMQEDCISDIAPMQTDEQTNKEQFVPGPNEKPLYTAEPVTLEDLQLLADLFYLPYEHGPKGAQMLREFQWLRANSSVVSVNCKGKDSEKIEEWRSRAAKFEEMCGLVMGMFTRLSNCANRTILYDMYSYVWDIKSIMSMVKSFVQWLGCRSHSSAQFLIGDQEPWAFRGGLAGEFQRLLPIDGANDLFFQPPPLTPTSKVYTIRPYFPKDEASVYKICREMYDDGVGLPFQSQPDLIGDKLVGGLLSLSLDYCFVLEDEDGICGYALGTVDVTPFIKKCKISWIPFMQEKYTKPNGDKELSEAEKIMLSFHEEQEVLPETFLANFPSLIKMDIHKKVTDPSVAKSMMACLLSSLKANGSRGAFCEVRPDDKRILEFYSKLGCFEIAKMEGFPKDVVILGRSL
Summary of the method: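 Full-length human OGA in 200 mM citrate/phosphate pH 7.2 with 0.005% Tween-20, compound pre-incubated 60 min at RT, then 100 uM FM-GlcNAc (final); 10 nM enzyme for 1 h or 2 nM for 6 h at RT. Stopped with pH 11.0 carbonate; fluorescein read at ex 485/em 538 nm. IC50 and Hill coefficient from curve fit.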

[2] = tested on: OGA in HEK293 cells inducible for P301L mutant human Tau (isoform 2N4R); test: OGA cellular assay: immunocytochemical detection of O-GlcNAcylated proteins (CTD110.6 antibody) after 6 h incubation; type: cell-based; conditions: Homo sapiens, HEK293, 6 h
Summary of the method: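 Low-glucose medium, 6 h compound exposure at 0.2% DMSO; cells PFA-fixed and O-GlcNAc ICC signal imaged at 488 nm (9 fields/well), Hoechst nuclei counted for toxicity. Thiamet G 200 uM on each plate as maximum; IC50 from non-linear regression.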

Emax [1]: 102% | IC50 ([1]; read-out: Enzymatic hOGA, pIC50 (converted)): 40.7 nM | melting point: 173.68 °C
Compound: CC(=O)Nc1ncc(CN2CCC(Cc3ccc(F)c(C)n3)C2)s1 (centres unmarked) [compound 107]
Emax ([2]; maximum = Thiamet G 200 uM): 82% | EC50 ([2]; read-out: Cellular hOGA, pEC50 (converted)): 138 nM
